Here are results for 19 compounds from PMC7115408 (European Journal of Medicinal Chemistry, 2014).

“Also recorded” adds a separate entry of the source. Read-outs that look alike come from different tables or passages of the source.

One assay deals with Bacillus subtilis. Briefly: Well diffusion zone of inhibition, antibacterial. Conditions: for Antibacterial activity against B. subtilis (in words): zone of inhibition compared to Ampicillin; for zone of inhibition at 250 µg/disc: Bacillus subtilis, 48 h, read-out: Diameter of inhibition zone, Bacillus subtilis. In kind it is cell-based. Background: In agar diffusion tests the substance spreads into inoculated agar from a disc or well.

In the next assay the test system is Escherichia coli. As to the kind of experiment: Well diffusion zone of inhibition, antibacterial. In kind it is cell-based. As to conditions: for zone of inhibition at 250 µg/disc: Escherichia coli, 48 h, read-out: Diameter of inhibition zone, Escherichia coli.
A further assay relates to Asperigillus niger. Briefly: Well diffusion zone of inhibition, antifungal. It is filed as cell-based. As to conditions: Aspergillus niger, read-out: Diameter of inhibition zone, Asperigillus niger.
A further assay relates to WNV. Briefly: In vitro antiviral screening, visual and neutral red tests. It is filed as cell-based, West Nile virus (WNV). As to conditions: read-out: WNV EC50.
Another assay concerns HSV-2. As to the kind of experiment: In vitro antiviral screening, cytopathic effect and neutral red assays. In kind it is cell-based. As to conditions: read-out: HSV-2 EC50. In general terms: Protection from cytopathic effect is a common read-out in antiviral testing.
The subject of a further assay is HCV. It is filed as cell-based. As to conditions: read-out: HCV EC50.
The next assay relates to influenza A virus H3N2. As to the kind of experiment: Anti influenza screening, cytopathic effect and cytotoxicity assays. In kind it is cell-based. As to conditions: read-out: Influenza Type-A H3N2 EC50.
For the next assay, the system named is HBV. In kind it is cell-based. As to conditions: read-out: HBV EC50; DNA virion assay.
The next assay relates to SARS-CoV. As to the kind of experiment: microbe, parasite or virus in culture. In kind it is cell-based, severe acute respiratory syndrome coronavirus (SARS-CoV). As to conditions: for EC50: read-out: SARS-CoV EC50.
Another assay relates to influenza B virus. As to the kind of experiment: Anti influenza screening, cytopathic effect and cytotoxicity assays. As to conditions: read-out: Influenza Type-B EC50. In kind it is cell-based.
In the next assay the test system is HSV-1. Briefly: In vitro antiviral screening, cytopathic effect and neutral red assays. It is filed as cell-based. Conditions: read-out: HSV-1 EC50.
In another assay the test system is influenza A virus H5N1. It is filed as cell-based. As to conditions: for EC50: read-out: Influenza Type-A H5N1 EC50.
The subject of the next assay is influenza A virus H1N1. As to the kind of experiment: Anti influenza screening, cytopathic effect and cytotoxicity assays. It is filed as cell-based. As to conditions: read-out: Influenza Type-A H1N1 EC50.

On to `N#Cc1c(-c2cccs2)cc(-c2cccs2)n([C@@H]2O[C@H](CO)[C@@H](O)[C@H](O)[C@H]2O)c1=O` [Compound 2c, 1-(β-D-Glucopyranosyl)-2-oxo-4,6-di(2-thienyl)nicotinonitrile], for which the “Antibacterial activity against B. subtilis (in words)” value in the assay with Bacillus subtilis was “lower antibacterial activity”. The zone of inhibition (commonly the size of the clear area around the sample on an inoculated plate) at 250 µg/disc with Escherichia coli stood at 0 mm; in the assay with Asperigillus niger it was 8 mm.
Consider `N#Cc1c(-c2ccc(Cl)cc2)cc(-c2ccccn2)n(CCCO)c1=O` [Compound 8a, 4-(4-Chlorolphenyl)-1-(3-hydroxypropyl)-2-oxo-6-(2-pyridyl)nicotinonitrile], for which the “Antibacterial activity against B. subtilis (in words)” value in the assay on Bacillus subtilis was “lower antibacterial activity”.
For the compound `CC(C)c1ccc(-c2cc(-c3cccs3)n(COCCO)c(=O)c2C#N)cc1` [Compound 7b, 1-[(2-Hydroxyethoxy)methyl]-4-(4-isopropylphenyl)-2-oxo-6-(2-thienyl)nicotinonitrile], the “Antibacterial activity against B. subtilis (in words)” value in the assay with Bacillus subtilis is “good activity”. In addition, in the assay on Escherichia coli (zone of inhibition), the “Antibacterial activity against E. coli (in words)” value is recorded as “no activity”.
`N#Cc1c(-c2ccc(Cl)cc2)cc(-c2ccccn2)n([C@@H]2O[C@H](CO)[C@H](O)[C@H](O)[C@H]2O)c1=O` [Compound 3a, 4-(4-Chlorophenyl)-1-(β-D-galactopyranosyl)-2-oxo-6-(2-pyridyl)nicotinonitrile]: the “Antibacterial activity against B. subtilis (in words)” value in the assay with Bacillus subtilis is reported as “lower antibacterial activity”.
Take “4-(4-Isopropylphenyl)-2-oxo-6-(2-thienyl)nicotinonitrile [Compound 1b]”: the EC50 (as a rule, the midpoint of the concentration-response curve) with WNV is over 2.2 µM; in the assay on HSV-2 it was over 300 µM; with HCV, over 100 µM; in the assay with influenza A virus H3N2, 22 µM; in the assay with HBV, over 100 µM; with SARS-CoV it was over 26 µM. In addition, the 50% effective concentration (EC50) is 46 µM in the assay on influenza B virus, over 300 µM with HSV-1 and 32 µM with influenza A virus H5N1.
Consider `CC(=O)OC[C@H]1O[C@@H](n2c(-c3cccs3)cc(-c3ccc(C(C)C)cc3)c(C#N)c2=O)[C@H](OC(C)=O)[C@@H](OC(C)=O)[C@H]1OC(C)=O` [Compound 3bAc], for which, in the assay with Bacillus subtilis, the zone of inhibition at 250 µg/disc worked out at 1 mm and the “Antibacterial activity against B. subtilis (in words)” value is listed as “lower antibacterial activity”. Besides, the zone of inhibition at 250 µg/disc in the assay with Escherichia coli turned out to be 0 mm.
For the compound `CC(=O)OC[C@H]1O[C@@H](n2c(-c3cccs3)cc(-c3cccs3)c(C#N)c2=O)[C@H](OC(C)=O)[C@@H](OC(C)=O)[C@@H]1OC(C)=O` [Compound 2cAc], in the assay with Bacillus subtilis, the “Antibacterial activity against B. subtilis (in words)” value is “lower antibacterial activity”. The EC50 in the assay with SARS-CoV (Severe acute respiratory syndrome coronavirus) was over 32 µM.
As for `N#Cc1c(-c2ccc(Cl)cc2)cc(-c2ccccn2)nc1OCCCCO` [Compound 5, 4-(4-Chlorolphenyl)-2-(4-hydroxybutyloxy)-6-(2-pyridyl)nicotinonitrile], the “Antibacterial activity against B. subtilis (in words)” value with Bacillus subtilis is “lower antibacterial activity”.
Take `CC(C)c1ccc(-c2cc(-c3cccs3)n([C@@H]3O[C@H](CO)[C@H](O)[C@H](O)[C@H]3O)c(=O)c2C#N)cc1` [Compound 3b, 1-(β-D-Galactopyranosyl)-4-(4-isopropylphenyl)-2-oxo-6-(2-thienyl)nicotinonitrile]: the “Antibacterial activity against B. subtilis (in words)” value with Bacillus subtilis is on record as “lower antibacterial activity”. The zone of inhibition at 250 µg/disc with Asperigillus niger came out at 8 mm.
On to `N#Cc1c(-c2cccs2)cc(-c2cccs2)n([C@@H]2O[C@H](CO)[C@H](O)[C@H](O)[C@H]2O)c1=O` [Compound 3c, 1-(β-D-Galactopyranosyl)-2-oxo-4,6-di(2-thienyl)-nicotinonitrile], for which the “Antibacterial activity against B. subtilis (in words)” value in the assay with Bacillus subtilis was “lower antibacterial activity”.
The same measure, in the same setting: with `CC(=O)OCCOCn1c(-c2cccs2)cc(-c2cccs2)c(C#N)c1=O` [Compound 7cAc, 1-[(2-Acetoxyethoxy)methyl]-2-oxo-4,6-di(2-thienyl)nicotinonitrile] the entry was “moderate antibacterial activity”; with `C=CCOc1nc(-c2ccccn2)cc(-c2ccc(Cl)cc2)c1C#N` [Compound 9, 2-(Allyloxy)-4-(4-chlorolphenyl)-6-(2-pyridyl)nicotinonitrile], “lower antibacterial activity”; with `CC(=O)OC[C@H]1O[C@@H](n2c(-c3cccs3)cc(-c3ccc(C(C)C)cc3)c(C#N)c2=O)[C@H](OC(C)=O)[C@@H](OC(C)=O)[C@@H]1OC(C)=O` [Compound 2bAc], “lower antibacterial activity”.
“4-(4-Chlorophenyl)-2-oxo-6-(2-pyridyl)nicotinonitrile [Compound 1a]”: the EC50 in the assay with WNV is over 2.2 µM; in the assay with HSV-2, over 300 µM; with HCV, over 100 µM; in the assay on influenza A virus H3N2, over 2.6 µM; in the assay with influenza A virus H1N1, 26 µM; in the assay on HBV, over 100 µM. In addition, the EC50 in the assay on SARS-CoV is over 0.32 µM; in the assay with influenza B virus, over 36 µM; in the assay on HSV-1, over 300 µM; with influenza A virus H5N1, over 100 µM.
With `CC(=O)OCCCCOc1nc(-c2ccccn2)cc(-c2ccc(Cl)cc2)c1C#N` [Compound 5Ac], in the assay on Bacillus subtilis, the “Antibacterial activity against B. subtilis (in words)” value is on record as “lower antibacterial activity”.
Regarding `CC(=O)OC[C@H]1O[C@@H](n2c(-c3ccccn3)cc(-c3ccc(Cl)cc3)c(C#N)c2=O)[C@H](OC(C)=O)[C@@H](OC(C)=O)[C@@H]1OC(C)=O` [Compound 2aAc], the “Anti SARS-CoV activity (in words)” value with SARS-CoV is “slightly active by visual, but not neutral red test; also recorded: active”. Moreover, in the assay on influenza A virus H5N1, the “Anti influenza A (H5N1) activity (in words)” value was “good and slightly active and active”.
“2-Oxo-4,6-di(2-thienyl)nicotinonitrile [Compound 1c]”: the EC50 was over 4.6 µM in the assay with WNV; over 12 µM in the assay with HSV-2; over 100 µM with HCV; 16 µM with influenza A virus H3N2; 32 µM in the assay on influenza A virus H1N1; over 100 µM in the assay on HBV. Also, the EC50 with SARS-CoV was over 100 µM; in the assay with influenza B virus, over 100 µM; with HSV-1, over 12 µM; in the assay on influenza A virus H5N1, over 100 µM.
`CC(=O)OC[C@H]1O[C@@H](n2c(-c3ccccn3)cc(-c3ccc(Cl)cc3)c(C#N)c2=O)[C@H](OC(C)=O)[C@@H](OC(C)=O)[C@H]1OC(C)=O` [Compound 3aAc]: in the assay on Bacillus subtilis, the zone of inhibition at 250 µg/disc is 1 mm and the “Antibacterial activity against B. subtilis (in words)” value is given as “lower antibacterial activity”.
On to `CC(C)c1ccc(-c2cc(-c3cccs3)n([C@@H]3O[C@H](CO)[C@@H](O)[C@H](O)[C@H]3O)c(=O)c2C#N)cc1` [Compound 2b, 1-(β-D-Glucopyranosyl)-4-(4-isopropylphenyl)-2-oxo-6-(2-thienyl)nicotinonitrile], for which the “Antibacterial activity against B. subtilis (in words)” value with Bacillus subtilis is listed as “moderate antibacterial activity”.
